Data taken from patent publication US11512053B2, “Arginine methyltransferase inhibitors and uses thereof” (priority 2013, dated 2022).
Like-named read-outs stand apart in the source and are kept apart here.

Biological target: full-length human PRMT8 isoform 1 (Homo sapiens, UniProt Q9NR22)
Experiment: PRMT8 Biochemical Assay (3H-SAM Flashplate, peptide substrate)
Conditions: read-out: Biochemical IC50 PRMT8
Description: General Materials. S-adenosylmethionine (SAM), S-adenosylhomocysteine (SAH), bicine, Tween20, dimethylsulfoxide (DMSO), bovine skin gelatin (BSG), isopropyl-β-D-thiogalactopyranoside (IPTG), and Tris(2-carboxyethyl)phosphine hydrochloride solution (TCEP) were purchased from Sigma-Aldrich at the highest level of purity possible. ^3H-SAM was purchase from American Radiolabeled Chemicals with a specific activity of 80 Ci/mmol. 384-well streptavidin Flashplates were purchased from PerkinElmer.
Substrates. Peptide representative of human histone H4 residues 31-45 was synthesized with an N-terminal linker-affinity tag motif and a C-terminal amide cap by 21st Century Biochemicals. The peptide was purified by high-performance liquid chromatography (HPLC) to greater than 95% purity and confirmed by liquid chromatography mass spectrometry (LC-MS). The sequence was Biot-Ahx-[…]-amide (SEQ ID NO.:8).
The resulting construct encodes an N-terminal GST tag and a thrombin cleavage sequence ([…] […] […] […] SPEF) (SEQ ID NO.:9) fused directly to Met 1 of PRMT8.
Protein Expression. E. coli (BL21(DE3) Gold, Stratagene) made competent by the CaCl2) method were transformed with the PRMT8 construct and ampicillin selection. Protein over-expression was accomplished by growing the PRMT8 expressing E. coli clone and inducing expression with 0.3 mM IPTG at 16° C. The culture was grown for 12 hours, harvested by centrifugation, and stored at −80° C. for purification.
Protein Purification. […] GST-tagged PRMT8 was eluted with 50 mM Tris, 2 mM glutathione, pH 7.8. Pooled fractions were cleaved by thrombin (10U) and dialysed in buffer A. GST was removed by reloading the cleaved protein sample onto glutathione sepharose column and PRMT8 was collected in the flow-through fractions. PRMT8 was purified further by ceramic hydroxyapatite chromatography. The column was washed with 50 mM phosphate buffer, 100 mM NaCl, 5% glycerol, 5 mM β-mercaptoethanol, pH 7.8 and PRMT8 was eluted by 100 mM phosphate in the same buffer. Protein was concentrated and buffer was exchanged to 50 mM Tris, 300 mM NaCl, 10% glycerol, 5 mM β-mercaptoethanol, pH 7.8 by ultrafiltration. The purity of recovered protein was 89%.
General Procedure for PRMT8 Enzyme Assays on Peptide Substrates. The assays were all performed in a buffer consisting of 20 mM Bicine (pH=7.6), 1 mM TCEP, 0.005% BSG, and 0.002% Tween 20, prepared on the day of use. Compounds in 100% DMSO (1 ul) were spotted into a polypropylene 384-well V-bottom plates (Greiner) using a Platemate Plus outfitted with a 384-channel head (Thermo Scientific). DMSO (1 ul) was added to Columns 11, 12, 23, 24, rows A-H for the maximum signal control and 1 ul of SAH, a known product and inhibitor of PRMT8, was added to columns 11, 12, 23, 24, rows I-P for the minimum signal control. A cocktail (40 ul) containing the PRMT8 enzyme was added by Multidrop Combi (Thermo-Fisher). The compounds were allowed to incubate with PRMT8 for 30 min at room temperature, then a cocktail (10 ul) containing ^3H-SAM and peptide was added to initiate the reaction (final volume=51 ul). The final concentrations of the components were as follows: PRMT8 was 1.5 nM, ^3H-SAM was 50 nM, non-radiolabeled SAM was 550 nM, peptide was 150 nM, SAH in the minimum signal control wells was 1 mM, and the DMSO concentration was 2%. The assays were stopped by the addition of non-radiolabeled SAM (10 ul) to a final concentration of 400 uM, which dilutes the ^3H-SAM to a level where its incorporation into the peptide substrate is no longer detectable. 50 ul of the reaction in the 384-well polypropylene plate was then transferred to a 384-well Flashplate and the biotinylated peptides were allowed to bind to the streptavidin surface for at least 1 hour before being washed once with 0.1% Tween20 in a Biotek ELx405 plate washer. […]

[1] = single experiment or average of multiple experiments

Chain of full-length human PRMT8 isoform 1 (Q9NR22 whole entry, canonical isoform): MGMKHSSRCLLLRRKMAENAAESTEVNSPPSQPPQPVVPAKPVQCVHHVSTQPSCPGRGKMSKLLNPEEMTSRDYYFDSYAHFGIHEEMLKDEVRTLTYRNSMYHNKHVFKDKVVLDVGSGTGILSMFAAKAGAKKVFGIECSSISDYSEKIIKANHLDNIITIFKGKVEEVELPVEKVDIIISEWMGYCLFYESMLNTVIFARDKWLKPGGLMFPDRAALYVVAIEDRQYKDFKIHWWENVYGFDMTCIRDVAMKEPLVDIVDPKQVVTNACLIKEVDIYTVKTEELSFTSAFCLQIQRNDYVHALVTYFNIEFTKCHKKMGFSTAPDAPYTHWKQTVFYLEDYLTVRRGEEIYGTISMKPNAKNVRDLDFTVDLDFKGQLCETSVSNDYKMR

SMILES | IC50 [nM] | IC50 [1] [nM]
CNCCN(C)Cc1c[nH]nc1[C@H]1CC[C@]2(CCN(Cc3ccc(F)cc3)C2=O)CC1 [Compound 123] | < 100 | 24.7
CNCCN(C)Cc1c[nH]nc1[C@H]1CC[C@H](OCCOc2ccc(OC)cc2)CC1 [Compound 186] | < 100 | 89.6
CN(CCN)Cc1c[nH]nc1CCc1ccccc1 [Compound 9] | 101 to 1000 | 760
CNCCN(C)Cc1c[nH]nc1C1CCC2(CC1)C(=O)NC(=O)N2C (stereo not shown) [Compound 161] | < 100 | 37.4
CCC(=O)N(CC1CCOCC1)[C@H]1CC[C@H](c2n[nH]cc2CN(C)CCNC)CC1 [Compound 109] | < 100 | 56
CNCCN(C)Cc1c[nH]nc1[C@H]1CC[C@@]2(CCOC2)CC1 [Compound 141] | < 100 | 29.7
CNCCN(C)Cc1c[nH]nc1[C@H]1CC[C@]2(CCN(Cc3ccccc3)C2=O)CC1 [Compound 128] | < 100 | 8.2
CNCCN(C)Cc1c[nH]nc1[C@H]1CC[C@H](OCCOc2ccc(OCCOC)cc2)CC1 [Compound 116] | < 100 | 11.8
CCCOC1CC(OCCC)CC(c2n[nH]cc2CN(C)CCNC)C1 (stereo not shown) [Compound 131] | 1010 to 3000 | 1970
CNCCN(C)Cc1c[nH]nc1C1CCC2(CC1)NC(=O)N(C)C2=O (stereo not shown) [Compound 170] | < 100 | 23.7
CNCCN(C)Cc1c[nH]nc1C1CCC2(CCNC2=O)CC1 (stereo not shown) [Compound 176] | < 100 | 28.6
